Results as given in patent US9777020B2, “Furo-3-carboxamide derivatives and methods of use” (AbbVie Inc., priority 2014, dated 2017).

Target: TrkA (Homo sapiens (Human), UniProt P04629)
Experiment: TrkA kinase HTRF enzyme inhibition assay
Format: biochemical
Conditions: TrkA pre-incubated with 200 μM ATP
Description: TrkA enzyme was obtained from Invitrogen (as catalog numbers PV3144, PV3616, and PV3617, respectively). Enzyme activity was measured in an HTRF® (homogeneous time resolved fluorescence) assay, which detects enzymatic phosphorylation of a biotinylated synthetic peptide substrate (an LCK peptide analog, biotin-ahx-[…], from Genemed Synthesis). Phosphorylation is assessed by HTRF® in the presence of an anti-phosphotyrosine antibody conjugated to Eu^3+ cryptate (Cisbio) as donor fluorophore, and streptavidin conjugated to allophycocyanin (ProZyme) as acceptor fluorophore. The HTRF® signal was detected at two different wavelengths (620 nm and 665 nm) which were used to calculate the fluorescence ratio.
TrkA enzyme was titrated to a concentration optimized to ensure accurate measurement of the initial reaction rate. To allow the TrkA enzyme to undergo activation and auto-phosphorylation, a 20 minute pre-incubation with ATP was carried out (at twice the final targeted enzyme and ATP concentration) prior to addition of test compound and the peptide substrate.
TrkA in vitro assays were performed by pre-incubating TrkA (2-10 nM) with ATP (200 μM) for 20 minutes at ambient temperature in 50 mM HEPES pH 7.4, 10 mM MgCl2, 2 mM MnCl2, 100 μM Na3VO4, 1 mM dithiothreitol, 0.01% BSA (bovine serum albumin). Then, to the activated Trk enzyme mixture was added the test compound in 2% dimethyl sulfoxide. After 10 minutes, the peptide substrate (125 nM) was added. After 1 hour, enzyme reactions were terminated by addition of equal reaction volumes of detection/stop reagent (containing 0.2 μg/mL anti-phosphotyrosine monoclonal antibody labeled with europium from Cisbio (catalog#PT66-K), and 4 μg/mL PhycoLink® Streptavidin-Allophycocyanin conjugate from ProZyme (catalog#PJ25S) in 60 mM EDTA in 40 mM HEPES pH 7.4, 480 mM KF, 0.01% Tween® 20 and 0.1% BSA bovine serum albumin) Reaction plates were stored at 4° C. overnight before reading the fluorescence ratio signal on a PerkinElmer EnVision™ fluorescence detector. Individual reaction wells were stopped at time points to obtain reaction rates. The test inhibitor compounds were assayed in duplicate, at half-log serial dilutions over a range of concentrations (e.g. starting at 50 μM or 5 μM as the high compound concentration). The percent Trk enzyme inhibition was calculated from the initial rates of the inhibited reactions relative to the uninhibited control. IC50 values were calculated by fitting the inhibition percent to the concentration of inhibitor [I] in the assay in equation 1 below, to solve for the IC50. Inhibition %=100[I]/([I]+[IC50]) equation 1

Chain of TrkA (P04629 33-796): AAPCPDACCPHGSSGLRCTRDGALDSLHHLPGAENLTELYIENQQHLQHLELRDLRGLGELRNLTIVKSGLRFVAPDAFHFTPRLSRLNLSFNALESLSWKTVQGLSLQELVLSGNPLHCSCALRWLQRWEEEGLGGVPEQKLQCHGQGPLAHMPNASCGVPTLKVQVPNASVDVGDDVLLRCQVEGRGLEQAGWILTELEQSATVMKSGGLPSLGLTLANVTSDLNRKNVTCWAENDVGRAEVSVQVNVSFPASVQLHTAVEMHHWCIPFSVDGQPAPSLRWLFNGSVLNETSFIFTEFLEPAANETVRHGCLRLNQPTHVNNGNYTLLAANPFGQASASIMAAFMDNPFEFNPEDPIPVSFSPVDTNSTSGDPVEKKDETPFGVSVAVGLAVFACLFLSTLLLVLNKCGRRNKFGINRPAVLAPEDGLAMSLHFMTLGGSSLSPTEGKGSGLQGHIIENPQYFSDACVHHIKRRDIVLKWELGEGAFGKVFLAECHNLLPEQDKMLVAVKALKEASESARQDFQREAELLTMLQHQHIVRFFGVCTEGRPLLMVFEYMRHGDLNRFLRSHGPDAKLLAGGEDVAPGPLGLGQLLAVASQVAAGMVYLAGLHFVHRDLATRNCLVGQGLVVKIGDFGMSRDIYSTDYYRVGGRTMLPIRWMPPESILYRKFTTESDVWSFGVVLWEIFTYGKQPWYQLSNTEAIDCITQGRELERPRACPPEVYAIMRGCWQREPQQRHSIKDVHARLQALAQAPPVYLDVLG

| Structure (SMILES) | IC50 |
| --- | --- |
| Cc1n[nH]c2ccc(NC(=O)c3coc4c3C(=O)N(C)CC4)cc12 [Example 73, 5-methyl-N-(3-methyl-1H-indazol-5-yl)-4-oxo-4,5,6,7-tetrahydrofuro[3,2-c]pyridine-3-carboxamide] | 1080 nM |
| Cc1cc2[nH]ncc2cc1NC(=O)c1coc2c1C(=O)N(C)CC2 [Example 74, 5-methyl-N-(6-methyl-1H-indazol-5-yl)-4-oxo-4,5,6,7-tetrahydrofuro[3,2-c]pyridine-3-carboxamide] | 2590 nM |
| CN1CCc2occ(C(=O)Nc3nc4ccccc4s3)c2C1=O [Example 75, N-(1,3-benzothiazol-2-yl)-5-methyl-4-oxo-4,5,6,7-tetrahydrofuro[3,2-c]pyridine-3-carboxamide] | 2050 nM |
| CN1CCc2occ(C(=O)Nc3ccc(C(F)(F)F)cn3)c2C1=O [Example 76, 5-methyl-4-oxo-N-[5-(trifluoromethyl)pyridin-2-yl]-4,5,6,7-tetrahydrofuro[3,2-c]pyridine-3-carboxamide] | 1530 nM |
| CN1CCc2occ(C(=O)Nc3cc4cn[nH]c4cc3Cl)c2C1=O [Example 77, N-(6-chloro-1H-indazol-5-yl)-5-methyl-4-oxo-4,5,6,7-tetrahydrofuro[3,2-c]pyridine-3-carboxamide] | 367 nM |
| Cc1nc2cc(NC(=O)c3coc4c3C(=O)N(C)CC4)ccc2[nH]1 [Example 78, 5-methyl-N-(2-methyl-1H-benzimidazol-5-yl)-4-oxo-4,5,6,7-tetrahydrofuro[3,2-c]pyridine-3-carboxamide] | 236 nM |
| COC(=O)c1ccc(Oc2nc(N3CCN(C)CC3)ccc2NC(=O)c2coc3c2C(=O)NCCC3)cc1 [Example 82, methyl 4-{[6-(4-methylpiperazin-1-yl)-3-{[(4-oxo-5,6,7,8-tetrahydro-4H-furo[3,2-c]azepin-3-yl)carbonyl]amino}pyridin-2-yl]oxy}benzoate] | 682 nM |
| CN1CCN(c2ccc(NC(=O)c3coc4c3C(=O)NCCC4)c(Oc3ccc(CO)cc3)n2)CC1 [Example 83, N-{2-[4-(hydroxymethyl)phenoxy]-6-(4-methylpiperazin-1-yl)pyridin-3-yl}-4-oxo-5,6,7,8-tetrahydro-4H-furo[3,2-c]azepine-3-carboxamide] | 496 nM |
| COCCOc1nc(N2CCN(C(C)=O)CC2)ccc1NC(=O)c1coc2c1C(=O)N(CCOCc1ccccc1)CC2 [Example 85, N-[6-(4-acetylpiperazin-1-yl)-2-(2-methoxyethoxyl)pyridin-3-yl]-5-[2-(benzyloxy)ethyl]-4-oxo-4,5,6,7-tetrahydrofuro[3,2-c]pyridine-3-carboxamide] | 266 nM |
| CC(=O)N1CCN(c2ccc(NC(=O)c3coc4c3C(=O)N(CCOCc3ccccc3)CC4)c(OCCOCc3ccccc3)n2)CC1 [Example 86, N-{6-(4-acetylpiperazin-1-yl)-2-[2-(benzyloxy)ethoxy]pyridin-3-yl}-5-[2-(benzyloxy)ethyl]-4-oxo-4,5,6,7-tetrahydrofuro[3,2-c]pyridine-3-carboxamide] | 1320 nM |
| COCCOc1nc(N2CCN(C(C)=O)CC2)ccc1NC(=O)c1coc2c1C(=O)N(CCO)CC2 [Example 87, N-[6-(4-acetylpiperazin-1-yl)-2-(2-methoxyethoxyl)pyridin-3-yl]-5-(2-hydroxyethyl)-4-oxo-4,5,6,7-tetrahydrofuro[3,2-c]pyridine-3-carboxamide] | 224 nM |

Stronger by IC50, values ahead:

| IC50 | Structure (SMILES) |
| --- | --- |
| 44.7 nM | COc1cc(N2CCN(C(=O)CC(C)(C)C)CC2)ccc1NC(=O)c1coc2c1C(=O)NCC2 [Example 79, N-{4-[4-(3,3-dimethylbutanoyl)piperazin-1-yl]-2-methoxyphenyl}-4-oxo-4,5,6,7-tetrahydrofuro[3,2-c]pyridine-3-carboxamide] |
| 67.7 nM | COc1cc(N2CCN(C(=O)N3CCCC3)CC2)ccc1NC(=O)c1coc2c1C(=O)NCC2 [Example 80, N-{2-methoxy-4-[4-(pyrrolidin-1-ylcarbonyl)piperazin-1-yl]phenyl}-4-oxo-4,5,6,7-tetrahydrofuro[3,2-c]pyridine-3-carboxamide] |
| 65.8 nM | COc1cc(N2CCN(S(=O)(=O)N(C)C)CC2)ccc1NC(=O)c1coc2c1C(=O)NCC2 [Example 81, N-{4-[4-(dimethylsulfamoyl)piperazin-1-yl]-2-methoxyphenyl}-4-oxo-4,5,6,7-tetrahydrofuro[3,2-c]pyridine-3-carboxamide] |
| 5.3 nM | CCOc1nc(N2CCN(C(C)=O)CC2)ccc1NC(=O)c1coc2c1C(=O)N(CCOC)CC2 [Example 84, N-[6-(4-acetylpiperazin-1-yl)-2-ethoxypyridin-3-yl]-5-(2-methoxyethyl)-4-oxo-4,5,6,7-tetrahydrofuro[3,2-c]pyridine-3-carboxamide] |
| 95 nM | CC(=O)N1CCN(c2ccc(NC(=O)c3coc4c3C(=O)N(CCO)CC4)c(OCCO)n2)CC1 [Example 88, N-[6-(4-acetylpiperazin-1-yl)-2-(2-hydroxyethoxyl)pyridin-3-yl]-5-(2-hydroxyethyl)-4-oxo-4,5,6,7-tetrahydrofuro[3,2-c]pyridine-3-carboxamide] |
| 4.7 nM | CCOc1nc(N2CCN(C(C)=O)CC2)ccc1NC(=O)c1coc2c1C(=O)N(CCCO)CC2 [Example 89, N-[6-(4-acetylpiperazin-1-yl)-2-ethoxypyridin-3-yl]-5-(3-hydroxypropyl)-4-oxo-4,5,6,7-tetrahydrofuro[3,2-c]pyridine-3-carboxamide] |
| 4.7 nM | CCOc1nc(N2CCN(C(C)=O)CC2)ccc1NC(=O)c1coc2c1C(=O)N(CCCCO)CC2 [Example 90, N-[6-(4-acetylpiperazin-1-yl)-2-ethoxypyridin-3-yl]-5-(4-hydroxybutyl)-4-oxo-4,5,6,7-tetrahydrofuro[3,2-c]pyridine-3-carboxamide] |
| 7 nM | CCOc1nc(N2CCN(C(C)=O)CC2)ccc1NC(=O)c1coc2c1C(=O)N(CCOCCO)CC2 [Example 91, N-[6-(4-acetylpiperazin-1-yl)-2-ethoxypyridin-3-yl]-5-[2-(2-hydroxyethoxyl)ethyl]-4-oxo-4,5,6,7-tetrahydrofuro[3,2-c]pyridine-3-carboxamide] |
| 18.2 nM | CCOc1nc(N2CCN(C(=O)OC(C)(C)C)CC2)ccc1NC(=O)c1coc2c1C(=O)NCC2 [Example 92, tert-butyl 4-(6-ethoxy-5-{[(4-oxo-4,5,6,7-tetrahydrofuro[3,2-c]pyridin-3-yl)carbonyl]amino}pyridin-2-yl)piperazine-1-carboxylate] |
| 16.3 nM | CCOc1nc(N2CCN(C(=NC#N)NC)CC2)ccc1NC(=O)c1coc2c1C(=O)NCC2 [Example 93, N-{6-[4-(N′-cyano-N-methylcarbamimidoyl)piperazin-1-yl]-2-ethoxypyridin-3-yl}-4-oxo-4,5,6,7-tetrahydrofuro[3,2-c]pyridine-3-carboxamide] |
| 1.5 nM | CCOc1nc(N2CCN(C(C)=O)CC2)ccc1NC(=O)c1coc2c1C(=O)N(C[C@@H](C)OC(C)=O)CC2 [Example 94, (2R)-1-[3-{[6-(4-acetylpiperazin-1-yl)-2-ethoxypyridin-3-yl]carbamoyl}-4-oxo-6,7-dihydrofuro[3,2-c]pyridin-5(4H)-yl]propan-2-yl acetate] |
| 4.3 nM | CCOc1nc(N2CCN(C(C)=O)CC2)ccc1NC(=O)c1coc2c1C(=O)N(C[C@@H](C)O)CC2 [Example 95, N-[6-(4-acetylpiperazin-1-yl)-2-ethoxypyridin-3-yl]-5-[(2R)-2-hydroxypropyl]-4-oxo-4,5,6,7-tetrahydrofuro[3,2-c]pyridine-3-carboxamide] |
| 6.7 nM | CCOc1nc(N2CCN(C(C)=O)CC2)ccc1NC(=O)c1coc2c1C(=O)N(C[C@H](C)OC(C)=O)CC2 [Example 96, (2S)-1-[3-{[6-(4-acetylpiperazin-1-yl)-2-ethoxypyridin-3-yl]carbamoyl}-4-oxo-6,7-dihydrofuro[3,2-c]pyridin-5(4H)-yl]propan-2-yl acetate] |
| 4.8 nM | CCOc1nc(N2CCN(C(C)=O)CC2)ccc1NC(=O)c1coc2c1C(=O)N(C[C@H](C)O)CC2 [Example 97, N-[6-(4-acetylpiperazin-1-yl)-2-ethoxypyridin-3-yl]-5-[(2S)-2-hydroxypropyl]-4-oxo-4,5,6,7-tetrahydrofuro[3,2-c]pyridine-3-carboxamide] |
| 1.5 nM | CCOc1nc(N2CCN(C(C)=O)CC2)ccc1NC(=O)c1coc2c1C(=O)N([C@H](C)COC(C)=O)CC2 [Example 98, (2R)-2-[3-{[6-(4-acetylpiperazin-1-yl)-2-ethoxypyridin-3-yl]carbamoyl}-4-oxo-6,7-dihydrofuro[3,2-c]pyridin-5(4H)-yl]propyl acetate] |
